Experimental data: PubChem BioAssay (NCI)
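The compound was tested at five concentrations on cells cultured in 96-well plates, with a 48-hour exposure period. GI50 = concentration required for 50% inhibition of growth. TGI: concentration producing complete growth inhibition.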

Key:
Experiment in all cases: NCI-60 cell line screen, 48 h
[1] = tested on: SK-MEL-28 melanoma
[2] = tested on: UACC-257 melanoma
[3] = tested on: NCI-H522 lung
[4] = tested on: U251 CNS
[5] = tested on: TK-10 renal
[6] = tested on: RXF 393 renal
[7] = tested on: IGROV1 ovarian
[8] = tested on: CAKI-1 renal
[9] = tested on: CCRF-CEM leukemia
[10] = tested on: BT-549 breast
[11] = tested on: SR leukemia
[12] = tested on: NCI/ADR-RES ovarian
[13] = tested on: LOX IMVI melanoma
[14] = tested on: A549 NSCLC
[15] = tested on: HT29 colon
[16] = tested on: HCT-116 colon
[17] = tested on: MALME-3M melanoma
[18] = tested on: 786-0 renal
[19] = tested on: K-562 leukemia
[20] = tested on: NCI-H226 lung
[21] = tested on: A498 renal
[22] = tested on: OVCAR-4 ovarian
[23] = tested on: MDA-MB-231 breast
[24] = tested on: SF-295 CNS
[25] = tested on: NCI-H23 lung
[26] = tested on: M14 melanoma
[27] = tested on: HCC-2998 colon
[28] = tested on: OVCAR-3 ovarian
[29] = tested on: COLO 205 colon
[30] = tested on: MDA-MB-435
[31] = tested on: OVCAR-8 ovarian
[32] = tested on: SW-620 colon
[33] = tested on: HS 578T breast
[34] = tested on: HOP-62 NSCLC
[35] = tested on: DU-145 prostate
[36] = tested on: MCF7 breast
[37] = tested on: SN12C renal
[38] = tested on: EKVX NSCLC
[39] = tested on: SF-268 CNS
[40] = tested on: HOP-92 NSCLC
[41] = tested on: HL-60(TB) leukemia
[42] = tested on: SK-MEL-2 melanoma
[43] = tested on: SNB-75 CNS
[44] = tested on: MOLT-4 leukemia
[45] = tested on: T-47D breast
[46] = tested on: SK-MEL-5 melanoma
[47] = tested on: RPMI-8226 leukemia
[48] = tested on: SK-OV-3 ovarian
[49] = tested on: UACC-62 melanoma
[50] = tested on: SNB-19 CNS
[51] = tested on: KM12 colon
[52] = tested on: UO-31 renal
[53] = tested on: PC-3 prostate
[54] = tested on: NCI-H460 lung

CN(C)c1ccc2nc3ccc(=[N+](C)C)c([N+](=O)[O-])c-3sc2c1
GI50 [1]: 10.3 µM | TGI [1]: 22 µM | GI50 [2]: 2.85 µM | TGI [2]: 8.59 µM | GI50 [3]: 1.81 µM | TGI [3]: 5.19 µM | GI50 [4]: 1.21 µM | TGI [4]: 11.1 µM | GI50 [5]: 7.46 µM | TGI [5]: 23.5 µM | GI50 [6]: 4.41 µM | TGI [6]: 18.1 µM | GI50 [7]: 2.56 µM | GI50 [8]: 2.59 µM | TGI [8]: 13.1 µM | GI50 [9]: 0.908 µM | TGI [9]: 15.4 µM | GI50 [10]: 8.29 µM | TGI [10]: 21.7 µM | GI50 [11]: 0.797 µM | TGI [11]: 17.5 µM | GI50 [12]: 2.33 µM | TGI [12]: 8.13 µM | GI50 [13]: 1.32 µM | TGI [13]: 7.85 µM | GI50 [14]: 1.46 µM | TGI [14]: 18.1 µM | GI50 [15]: 6.04 µM | TGI [15]: 25.1 µM | GI50 [16]: 2.45 µM | TGI [16]: 13.2 µM | GI50 [17]: 2.38 µM | TGI [17]: 8.97 µM | GI50 [18]: 6.2 µM | TGI [18]: 21.4 µM | GI50 [19]: 1.94 µM | TGI [19]: 19.4 µM | GI50 [20]: 7.97 µM | TGI [20]: 22.4 µM | GI50 [21]: 7.06 µM | TGI [21]: 21.9 µM | GI50 [22]: 0.906 µM | TGI [22]: 3.04 µM | GI50 [23]: 0.578 µM | TGI [23]: 4.46 µM | GI50 [24]: 3.04 µM | TGI [24]: 16.6 µM | GI50 [25]: 1.87 µM | TGI [25]: 9.65 µM | GI50 [26]: 1.32 µM | TGI [26]: 10.8 µM | GI50 [27]: 5.18 µM | TGI [27]: 16.8 µM | GI50 [28]: 0.271 µM | TGI [28]: 0.926 µM | GI50 [29]: 1.7 µM | TGI [29]: 9.83 µM | GI50 [30]: 2.46 µM | TGI [30]: 11.4 µM | GI50 [31]: 1.87 µM | TGI [31]: 10.4 µM | GI50 [32]: 2.57 µM | TGI [32]: 12.3 µM | GI50 [33]: 3.33 µM | TGI [33]: 26.1 µM | GI50 [34]: 8.6 µM | TGI [34]: 22.2 µM | GI50 [35]: 4.75 µM | TGI [35]: 18.3 µM | GI50 [36]: 1.79 µM | TGI [36]: 5.9 µM | GI50 [37]: 1.37 µM | TGI [37]: 5.26 µM | GI50 [38]: 1.67 µM | TGI [38]: 16.2 µM | GI50 [39]: 2.1 µM | TGI [39]: 13.2 µM | GI50 [40]: 2.09 µM | TGI [40]: 11.3 µM | GI50 [41]: 0.302 µM | TGI [41]: 4.7 µM | GI50 [42]: 4.54 µM | TGI [42]: 16.1 µM | GI50 [43]: 2.93 µM | TGI [43]: 13.3 µM | GI50 [44]: 2.3 µM | TGI [44]: 10.6 µM | GI50 [45]: 2.16 µM | TGI [45]: 7.47 µM | GI50 [46]: 1.44 µM | TGI [46]: 12.1 µM | GI50 [47]: 0.536 µM | TGI [47]: 15.9 µM | GI50 [48]: 11.8 µM | TGI [48]: 28.9 µM | GI50 [49]: 1.1 µM | TGI [49]: 3 µM | GI50 [50]: 0.483 µM | TGI [50]: 17.4 µM | GI50 [51]: 2.08 µM | TGI [51]: 16.4 µM | GI50 [52]: 5.98 µM | TGI [52]: 23.4 µM | GI50 [53]: 0.599 µM | TGI [53]: 6.78 µM | GI50 [54]: 2.59 µM | TGI [54]: 15.2 µM
